Laboratory results as given in publication PMC5892710 (Nature chemical biology, 2017).

Biological target: T1, Etr1p (Candida tropicalis, UniProt Q8WZM3)
T1 sequence (Q8WZM3 23-386): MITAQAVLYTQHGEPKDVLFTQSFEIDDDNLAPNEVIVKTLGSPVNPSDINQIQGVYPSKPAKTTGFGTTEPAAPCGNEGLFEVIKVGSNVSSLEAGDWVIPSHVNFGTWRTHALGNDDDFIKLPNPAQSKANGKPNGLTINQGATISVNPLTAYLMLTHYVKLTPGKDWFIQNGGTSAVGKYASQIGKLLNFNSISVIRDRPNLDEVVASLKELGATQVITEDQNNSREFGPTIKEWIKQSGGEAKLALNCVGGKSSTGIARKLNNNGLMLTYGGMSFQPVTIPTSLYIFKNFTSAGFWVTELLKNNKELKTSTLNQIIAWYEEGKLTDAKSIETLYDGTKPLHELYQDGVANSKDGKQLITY
Experiment: isothermal titration calorimetry
Type: binding
Conditions: 150 mM NaCl, 20 mM Tris-HCl pH 7.9; association constant

## NC(=O)C1=CN([C@@H]2O[C@H](COP(=O)(O)OP(=O)(O)OC[C@H]3O[C@@H](n4cnc5c(N)ncnc54)[C@H](OP(=O)(O)O)[C@@H]3O)[C@@H](O)[C@H]2O)C=CC1 [NADPH]
  binding constant: 3.8 ± 1.0 ·10^5
